Laboratory results reported in publication PMC10636063, “Progesterone activation of β1-containing BK channels involves two binding sites” (Nature Communications, 2023).
Several values for one entry are separate records, joined by “and”; a condition that tells them apart may be missing. Equal entries are not always repeated.

Tests used:
[1] = target: T1, slo1 (cbv1 isoform)+β1 BK channels (Rattus norvegicus, UniProt P97678); experiment: Channel activity (NPo) in POPE/POPS planar lipid bilayers, cbv1+β1; format: biochemical; conditions: for normalized NPo, time course Fig 2E: 10uM PROG
T1 construct: made in house; host or cells: CHO cells, transient transfection; sucrose-gradient membrane preparation
T1 sequence (P97678 whole entry, canonical isoform): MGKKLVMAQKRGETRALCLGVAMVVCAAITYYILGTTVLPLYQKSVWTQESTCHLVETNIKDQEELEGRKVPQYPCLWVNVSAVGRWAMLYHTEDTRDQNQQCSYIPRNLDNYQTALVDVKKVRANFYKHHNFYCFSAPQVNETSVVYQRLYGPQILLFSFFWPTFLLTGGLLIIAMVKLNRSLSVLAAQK
T1 sequence (Q62976 1-1148 isoform Q62976-2 partner): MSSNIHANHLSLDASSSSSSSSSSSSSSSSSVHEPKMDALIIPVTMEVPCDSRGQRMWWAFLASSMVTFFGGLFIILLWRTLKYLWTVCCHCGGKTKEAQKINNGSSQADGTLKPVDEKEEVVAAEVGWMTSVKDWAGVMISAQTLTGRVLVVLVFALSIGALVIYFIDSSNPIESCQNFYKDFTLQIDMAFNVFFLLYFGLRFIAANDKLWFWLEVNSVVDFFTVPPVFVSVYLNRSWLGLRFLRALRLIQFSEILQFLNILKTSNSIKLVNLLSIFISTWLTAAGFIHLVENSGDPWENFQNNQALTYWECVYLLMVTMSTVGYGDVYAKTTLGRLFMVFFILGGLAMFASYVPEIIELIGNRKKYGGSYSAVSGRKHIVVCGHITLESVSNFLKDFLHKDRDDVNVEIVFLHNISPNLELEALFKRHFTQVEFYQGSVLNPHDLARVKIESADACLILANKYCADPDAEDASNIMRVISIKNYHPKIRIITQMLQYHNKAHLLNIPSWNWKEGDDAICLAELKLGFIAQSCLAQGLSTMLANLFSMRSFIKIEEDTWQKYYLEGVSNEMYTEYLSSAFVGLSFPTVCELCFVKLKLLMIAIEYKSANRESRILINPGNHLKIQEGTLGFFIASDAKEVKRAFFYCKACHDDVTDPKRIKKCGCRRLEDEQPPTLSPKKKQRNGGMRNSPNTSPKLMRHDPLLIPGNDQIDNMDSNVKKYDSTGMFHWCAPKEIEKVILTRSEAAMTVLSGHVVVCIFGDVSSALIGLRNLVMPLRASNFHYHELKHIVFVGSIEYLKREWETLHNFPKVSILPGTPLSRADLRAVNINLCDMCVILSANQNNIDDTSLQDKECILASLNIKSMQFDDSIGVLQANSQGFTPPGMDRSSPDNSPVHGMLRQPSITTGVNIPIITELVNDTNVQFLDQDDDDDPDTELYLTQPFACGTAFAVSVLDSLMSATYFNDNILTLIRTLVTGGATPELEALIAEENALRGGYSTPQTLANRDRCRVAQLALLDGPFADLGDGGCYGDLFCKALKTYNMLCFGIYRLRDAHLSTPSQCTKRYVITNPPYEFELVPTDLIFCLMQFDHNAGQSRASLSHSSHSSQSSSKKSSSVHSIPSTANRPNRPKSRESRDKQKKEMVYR
Excerpt: BK channel-forming slo1 cDNA (cbv1 isoform; AY330293) was cloned from rat cerebral artery SM cells, and inserted into pcDNA3.1 vector as described. BK β1 cDNA (KCNMB1 product; NP_011452; FJ154955) were isolated from rat cerebral artery SM cells and cloned as described. β4 cDNA (KCNMB4; NP_055320; AY028605) were generously provided by Dr. Ligia Toro. CHO cells were transiently transfected with cbv1 ± β1-, or β4-carrying pcDNA3.1 using X-tremeGENE HP (Sigma-Aldrich). Mutations to β1/4 cDNAs were conducted by Genscript, with sequences being confirmed to be >99% identical to KCNMB1 product; NP_011452 or β4 KCNMB4; NP_055320; respectively. β1/4 and mutant constructs were flag-tagged (DYKDDDDK-tag) by Genscript services for subsequent immunoprecipitation and use in microscale thermophoresis studies.
Proteins for electrophysiological recordings in artificial lipid bilayers remained untagged. Cells were transiently transfected as described above, pelleted and re-suspended on ice in 10 ml of buffer solution of the following composition (mM): 30 KCl, 2 MgCl2, 10 HEPES, 5 EGTA; pH 7.2. A membrane preparation was obtained using a sucrose gradient as described. Aliquots were stored at −80 °C. BK channel-mediated ionic current was recorded in planar lipid bilayers consisting of a POPE:POPS 3:1 (w/w) mixture. Lipid mixtures were dried under N2 and re-suspended in 25 mg/ml of n-decane BK currents following incorporation into horizontal bilayers at 300/30 mM cis/trans gradient as detailed elsewhere. Ion currents were obtained during a 10-min gap-free recording at 0 mV in the presence of 0.01, 10 μM PROG, 10 μM PROG-oxime, or vehicle control (dimethyl sulfoxide; DMSO). Currents were obtained in gap-free mode using a Warner BC-525D amplifier, low pass-filtered at 1 kHz and sampled at 5 kHz with Digidata 1550B/pCLAMP 11 (Molecular Devices). For comparison with previous data from us[16],[17],[45]–[47], studies were conducted at 20–22 °C. […]
Patch-clamp and bilayer data were analyzed using Clampfit 10.7 software (Molecular Devices). NPo was used as an index of channel steady-state activity where N = number of channels in the patch (defined as a maximal number of opening levels at Po≤1) and Po=single channel open probability. Drug-induced NPo changes were determined by comparing baseline NPo (i.e., NPo with the patch/cell perfused with bath solution) to the NPo from the same patch/cell exposed to the agent under study (DMSO/PROG/oxime) dissolved in bath solution. NPo and mean open time values were automatically calculated using Clampfit 10.7, the latter using a 50% threshold detection event.

[2] = test system: pial arteries branching out of the MCA (C57BL/6J); experiment: Cerebral artery diameter through cranial window in vivo; set-up: species or system mouse
Description: Eight-12 week-old male and female C57BL/6J mice were anesthetized with a mixture of xylazine/ketamine (12/100 mg per kg) and kept anesthetized for the duration of the experiment with subsequent ketamine doses (50 mg/kg of weight) as needed. A catheter was inserted into the carotid artery so that the infusion went straight to the brain rather than towards the thoracic cavity. An area of the skull was cleared of tissue and thinned to expose the branching arteries originating from the MCA on the side the catheter was inserted, above the zygomatic arch, between the ear and eye of the skull[19],[34]. The exposed arteries branching out from the MCA were monitored using a Leica MC170 HD microscope with a mounted camera (Leica M125 C) connected to a computer monitor. Drugs were diluted to their final concentration in sodium saline (0.9% NaCl) and administered via catheter at 0.1 ml/25 g of weight. Cranial window images before and after drug administration were acquired every 60 seconds for subsequent analysis.

[3] = test system: de-endothelialized, pressurized MCA segments (C57BL/6); experiment: Cerebral artery diameter in vitro, de-endothelialized pressurized MCA segments; set-up: species or system mouse
Excerpt: Eight-12 week-old C57BL/6J and KCNMB1^−/− on C57BL/6 background mice of both sexes were deeply anesthetized with isoflurane via inhalation in a tightly sealed jar. Resistance size MCAs (~100 μm in external diameter) were dissected out of the mouse brains after animal euthanasia with sharp scissors. For de-endothelialized records, the endothelium was removed by passing an air bubble into the vessel lumen for 90 s[30]. This method has been consistently used by our group and validated using endothelium-dependent versus endothelium-independent vasodilators[16],[26]. Arteries were cannulated as previously described by our group[26],[40]. MCAs were cut into 5 to 10 mm-long segments under a microscope (Nikon SMZ645). The segment was cannulated at each end, and the artery exterior was continuously perfused with physiologic sodium saline (PSS) of the following composition (mM): 119 NaCl, 4.7 KCl, 1.2 KH2PO4, 1.6 CaCl2, 1.2 MgSO4, 0.023 EDTA, 11 glucose, 24 NaHCO3, pH=7.4. PSS was continuously bubbled with an O2/CO2/N2 (21/5/74%) gas mixture and maintained at 35–37 °C. The artery external wall diameter was measured using the automatic edge-detection function of lonWizard software (lonOptix) via Sanyo VCB-3512T camera (Sanyo Electric Co.). Arteries were first incubated at an intravascular pressure of 10 mm Hg for 10 min. Then intravascular pressure was increased to 60 mmHg and held steady throughout the experiment to induce myogenic tone development and maintenance[19],[30],[51]. Each artery segment was exposed to PROG, PROG-oxime (in presence and absence of 1 µM paxilline) only once to avoid development of desensitization during repeated applications of PROG-containing solution. To determine arterial viability, arterial contractility was probed with a high KCl solution at the end of each experiment. The high KCl solution was composed of the following composition (mM): 63.7 NaCl, 60 KCl, 1.2 KH2PO4, 1.2 MgSO4, 0.023 EDTA, 11 glucose, 24 NaHCO3, 1.6 CaCl2, pH=7.4. Like PSS, the high-KCl solution was continuously bubbled with O2/CO2/N2 (21/5/74%) gas mixture and maintained at 35–37 °C.

## CC(=O)[C@H]1CC[C@H]2[C@@H]3CCC4=CC(=O)CC[C@]4(C)[C@H]3CC[C@]12C [PROG, Progesterone]
[1]; 0 mV, 30 μM free Ca2+
  ECmax (EC100) of channel activation: 10 µM
  concentrations at which the channel is activated: greater than 0.1 μM
[1]; 0.01 µM PROG, min 2, single records
  NPo/NPobasal: 1.005 and 1.018 and 0.9275 and 1.019
[1]; 0.01 µM PROG, min 3, single records
  NPo/NPobasal: 1.029 and 1.009 and 1.058 and 0.9199
[1]; 0.01 µM PROG, min 4, single records
  NPo/NPobasal: 1.061 and 1.114 and 0.9928 and 1.089
[1]; 0.01 µM PROG, single records (Fig 1F)
  NPo/NPobasal of the maximal channel activity: 1.155 and 1 and 1.022 and 0.9918
[1]; 0.1 µM PROG, min 2, single records
  NPo/NPobasal: 0.9159 and 1.034 and 0.6663 and 1.012
[1]; 0.1 µM PROG, min 3, single records
  NPo/NPobasal: 0.7024 and 1.035 and 0.937 and 1.005
[1]; 0.1 µM PROG, min 4, single records
  NPo/NPobasal: 0.9376 and 1.037 and 1.102 and 0.9472
[1]; 0.1 µM PROG, min 5, single records
  NPo/NPobasal: 0.831 and 1.031 and 0.9946
[1]; 0.1 µM PROG, min 6, single records
  NPo/NPobasal: 0.9108 and 1.004
[1]; 0.1 µM PROG, min 7, single records
  NPo/NPobasal: 0.902 and 1.062
[1]; 0.1 µM PROG, min 8, single records
  NPo/NPobasal: 0.9384 and 1.053
[1]; 0.1 µM PROG, min 9, single records
  NPo/NPobasal: 0.9735 and 1.083
[1]; 0.1 µM PROG, min 10, single records
  NPo/NPobasal: 1.131 and 1.104
[1]; 1 µM PROG, min 2, single records
  NPo/NPobasal: 1.067 and 1.036 and 1.018 and 0.9862
[1]; 1 µM PROG, min 3, single records
  NPo/NPobasal: 1.103 and 0.992 and 0.9993 and 1.0069
[1]; 1 µM PROG, min 4, single records
  NPo/NPobasal: 0.9802 and 1.24 and 0.9671 and 1.426
[1]; 1 µM PROG, min 5, single records
  NPo/NPobasal: 1.982 and 1.288 and 1.134 and 1.31
[1]; 1 µM PROG, min 6, single records
  NPo/NPobasal: 1.589 and 1.543 and 1.405 and 1.4
[1]; 1 µM PROG, min 7, single records
  NPo/NPobasal: 1.339 and 1.38
[1]; 1 µM PROG, min 8, single records
  NPo/NPobasal: 1.498 and 1.434
[1]; 1 µM PROG, min 9, single records
  NPo/NPobasal: 1.121 and 1.382
[1]; 1 µM PROG, min 10, single records
  NPo/NPobasal: 1.43 and 1.377
[1]; 3 µM PROG, min 3, single records
  NPo/NPobasal: 1.768 and 1.125 and 1.174
[1]; 3 µM PROG, min 4, single records
  NPo/NPobasal: 2.026 and 1.046 and 1.706
[1]; 3 µM PROG, min 9, single records
  NPo/NPobasal: 2.184 and 1.286
[1]; 3 µM PROG, min 10, single records
  NPo/NPobasal: 2.295 and 1.4507
[1]; cbv1+beta1, time 1 min (normalisation reference), columns = single bilayers
  normalized NPo, time course Fig 2E: 1
[1]; cbv1+beta1, time 2 min
  normalized NPo, time course Fig 2E: 1.077 and 1.05 and 1.119 and 1.043 and 0.7556 and 0.908 and 1.053
[1]; cbv1+beta1, time 6 min
  normalized NPo, time course Fig 2E: 1.387 and 1.439 and 2.22 and 2.096 and 2.632 and 2.4507 and 1.714
[1]; cbv1+beta1, time 7 min
  normalized NPo, time course Fig 2E: 1.767 and 1.768 and 2.22 and 2.153 and 1.686 and 2.452 and 1.347
[1]; cbv1+beta1, time 9 min
  normalized NPo, time course Fig 2E: 1.702 and 2.262 and 1.688 and 2.653 and 1.535 and 1.822
[1]; cbv1+beta1, time 10 min
  normalized NPo, time course Fig 2E: 1.856 and 2.788 and 1.831 and 1.767 and 1.527
[1]; 10 μM, cis chamber, vs DMSO
  action on channel activity (NPo): readily and robustly activated
[1]; 100 µM PROG, min 2, single records
  NPo/NPobasal: 0.9793 and 1.054 and 0.898
[1]; 100 µM PROG, min 3, single records
  NPo/NPobasal: 1.51 and 1.02 and 1.024
[1]; 100 µM PROG, min 4, single records
  NPo/NPobasal: 1.597 and 1.676 and 0.9571
[1]; 100 µM PROG, min 5, single records
  NPo/NPobasal: 1.91 and 2.009 and 1.692
[1]; 100 µM PROG, min 6, single records
  NPo/NPobasal: 2.017 and 2.015 and 2.955
[1]; 100 µM PROG, min 7, single records
  NPo/NPobasal: 1.186 and 2.342 and 2.352
[1]; 100 µM PROG, min 8, single records
  NPo/NPobasal: 1.501 and 2.445 and 2.086
[1]; 100 µM PROG, min 9, single records
  NPo/NPobasal: 1.524 and 2.434
[1]; 100 µM PROG, min 10, single records
  NPo/NPobasal: 1.446 and 2.664
[2]; 10 μM infused via carotid artery, both sexes
  in vivo action on MCA branches: vasodilation
[2]; Fig 7C, time 4, individual replicates, male mice
  artery diameter, normalized to time 0: 1.09 (2×) and 1.035 and 1.058 and 0.9438
[2]; Fig 7C, time 5, individual replicates, male mice
  artery diameter, normalized to time 0: 1.016 and 1.1 and 0.9912 and 1.082 and 0.9491
[2]; Fig 7C, time 6, individual replicates, male mice
  artery diameter, normalized to time 0: 1.051 and 1.116 and 1.012 and 1.08 and 1.037
[2]; Fig 7C, time 7, individual replicates, male mice
  artery diameter, normalized to time 0: 1.112 and 1.049 and 1.05 and 1.107 and 1.058
[2]; Fig 7C, time 8, individual replicates, male mice
  artery diameter, normalized to time 0: 1.011 and 1.1193 and 1.034 and 1.1 and 1.095
[2]; Fig 7C, time 9, individual replicates, male mice
  artery diameter, normalized to time 0: 1.079 and 1.105 and 1.031 and 1.086 and 1.089
[2]; Fig 7C, time 10, individual replicates, male mice
  artery diameter, normalized to time 0: 1.09 and 1.053 and 0.9685 and 1.068 and 1.048
[2]; Fig 7C, time 11, individual replicates, male mice
  artery diameter, normalized to time 0: 1.108 and 1.043 and 1.018 and 1.059 and 1.07
[2]; Fig 7C, time 12, individual replicates, male mice
  artery diameter, normalized to time 0: 0.9973 and 1.002 and 1.105 and 1.107 and 1.084
[2]; Fig 7C, time 13, individual replicates, male mice
  artery diameter, normalized to time 0: 1.13 and 1.0049 and 1.077 and 1.135 and 1.0321
[2]; Fig 7D, time 4, individual replicates, female mice
  artery diameter, normalized to time 0: 1.137 and 1.058 and 0.95 and 1.071 and 1.184
[2]; Fig 7D, time 5, individual replicates, female mice
  artery diameter, normalized to time 0: 0.9598 and 1.079 and 0.97 and 0.997 and 1.229
[2]; Fig 7D, time 6, individual replicates, female mice
  artery diameter, normalized to time 0: 1.069 and 1.14 and 1.01 and 1.116 and 1.159
[2]; Fig 7D, time 7, individual replicates, female mice
  artery diameter, normalized to time 0: 1.131 and 1.157 and 1.04 and 1.012 and 1.149
[2]; Fig 7D, time 8, individual replicates, female mice
  artery diameter, normalized to time 0: 1.128 and 1.058 and 1.05 and 1.074 and 1.104
[2]; Fig 7D, time 9, individual replicates, female mice
  artery diameter, normalized to time 0: 1.1 and 1.083 and 1.05 and 1.009 and 1.17
[2]; Fig 7D, time 10, individual replicates, female mice
  artery diameter, normalized to time 0: 1.137 and 1.135 and 1.10 and 1.112 and 1.096
[2]; Fig 7D, time 11, individual replicates, female mice
  artery diameter, normalized to time 0: 1.0383 and 1.014 and 1.12 and 1.119 and 1.133
[2]; Fig 7D, time 12, individual replicates, female mice
  artery diameter, normalized to time 0: 1.097 and 0.9908 and 1.08 and 1.129 and 1.16
[2]; Fig 7D, time 13, individual replicates, female mice
  artery diameter, normalized to time 0: 1.0971 and 1.058 and 1.25 and 1.0807 and 1.024
[2]; Fig 7F, same values as Fig 7D time 7, individual replicates, female mice
  artery diameter, normalized (PROG vs oxime comparison): 1.043
[3]; 10 μM in the presence of 1 μM paxilline
  vasoactive response of MCA segments: lost
[3]; 10 μM, male and female mice
  vasoactive response of MCA segments: dilated MCA segments
[3]; male mice, 10 μM PROG, individual arterial segments
  percent changes in MCA diameter: 4.2471% and 1.678% and 1.882% and 1.946% and 2.105% and 8.38% and 2.776% and 5.128% and 1.929% and 4.348%
